{
  "source": "patent EP0259183A2",
  "about": "“Process for controlling the accuracy and precision of sensitivity assays” (LIFETRAC, priority 1986, dated 1988)",
  "system": "primary human tumor cells",
  "assay": "Drug sensitivity assay of primary tumor cell cultures on cell-adhesive matrix, growth quantitated by optical density of crystal violet stained wells, IC90 from survival curves",
  "assay_type": "cell-based",
  "settings": "median of IC90 values over a large group of individuals' tumor cells (Figure 5); 5 days drug exposure, then 7 days further culture; 2,000 cells per well",
  "method": "Biopsies of tumors were obtained from cancer patients during routine diagnostic or therapeutic procedures. The biopsies were transported to the laboratory.\nThe solid tumor biopsies were minced with scapels to 1 mm pieces. Fluid specimens were anticoagulated with 10 Units/ml of Heparin and the cells recovered by contrifugation. The tissue from either the solid or fluid specimens were disaggregated by overnight incubation with constant stirring with the enzyme cocktail consisting of collagenase (0.075%) and DNase (0.005%) in culture medium supplemented with 10% fetal bovine serum. […]\nThe tumor cell count is performed using a hemocytometer and a microscope fitted with a phase gradient inaging system so that living cells can be visualized. The number of viable tumor cells are counted at 400X magnification according to the following criteria: 1. unstained by the trypan blue dye; 2. large size (>15 microns); 3. large nucleous to cytoplasmic ratio; 4. prominant nucleoli; and 5. nil to moderate granularity. The number of cells in 1/9th the marked area of the hemocytometer meeting the above criteria are counted.\nThe cell concentration is calculated and an aliquot containing the number of cells required for the assay (200,000 cells for a 9 drug assay using alphaMEM culture medium) is withdrawn. […]",
  "data": [
    {"smiles": "N.N.[Cl][Pt][Cl]", "note": "[cisplatin]", "values": [
      {"measurement": "IC90 (concentration of drug that killed or inhibited 90% of the growing population of cells), median of the distribution of responses", "value": 0.3, "unit": "mg/L"}
    ]}
  ]
}
